Test results from ChEMBL document CHEMBL5653631, “A Potent and Selective ULK1 Inhibitor Suppresses Autophagy and Sensitizes Cancer Cells to Nutrient Stress” (iScience, 2018).

Columns and labels:
[1] = biological target: T1, Serine/threonine-protein kinase ULK1 (Homo sapiens) (UniProt O75385); assay: Inhibition of ULK1 phosphorylation at Ser15 residue in HEK293 cells incubated for 1 hr by chemiluminescence based immunoblotting analysis; type: cell-based; conditions: HEK293T, dose <= 20.0 µM
T1 sequence (whole entry): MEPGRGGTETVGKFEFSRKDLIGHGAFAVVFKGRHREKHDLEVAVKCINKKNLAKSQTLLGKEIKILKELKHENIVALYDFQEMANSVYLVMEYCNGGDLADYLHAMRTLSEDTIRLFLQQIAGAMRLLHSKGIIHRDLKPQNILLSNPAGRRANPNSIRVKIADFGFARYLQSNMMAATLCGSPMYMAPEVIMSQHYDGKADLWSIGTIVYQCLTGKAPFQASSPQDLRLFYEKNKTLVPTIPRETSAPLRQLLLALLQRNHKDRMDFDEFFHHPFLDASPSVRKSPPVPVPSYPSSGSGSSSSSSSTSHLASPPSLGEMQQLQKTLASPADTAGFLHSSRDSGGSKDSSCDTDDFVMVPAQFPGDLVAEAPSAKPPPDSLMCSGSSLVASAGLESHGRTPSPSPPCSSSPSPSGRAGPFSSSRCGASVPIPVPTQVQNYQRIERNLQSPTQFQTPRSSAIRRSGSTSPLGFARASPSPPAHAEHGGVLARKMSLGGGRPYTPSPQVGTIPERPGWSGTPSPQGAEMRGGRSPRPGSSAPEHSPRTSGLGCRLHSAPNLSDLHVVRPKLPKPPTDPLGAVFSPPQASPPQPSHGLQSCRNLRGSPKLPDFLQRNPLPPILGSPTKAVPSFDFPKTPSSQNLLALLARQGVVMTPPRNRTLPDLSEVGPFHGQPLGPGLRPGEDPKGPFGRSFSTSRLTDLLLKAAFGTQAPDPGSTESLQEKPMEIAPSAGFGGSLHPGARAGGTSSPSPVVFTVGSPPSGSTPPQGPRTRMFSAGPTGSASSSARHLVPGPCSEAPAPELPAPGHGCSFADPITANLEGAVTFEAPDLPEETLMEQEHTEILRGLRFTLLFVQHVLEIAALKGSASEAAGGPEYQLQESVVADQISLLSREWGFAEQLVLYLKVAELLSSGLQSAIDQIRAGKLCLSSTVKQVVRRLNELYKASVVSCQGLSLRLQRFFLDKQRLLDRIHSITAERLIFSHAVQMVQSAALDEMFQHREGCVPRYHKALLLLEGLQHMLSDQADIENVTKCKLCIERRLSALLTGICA

[2] = biological target: T2, Serine/threonine-protein kinase ULK2 (Homo sapiens, UniProt Q8IYT8); assay: Inhibition of human ULK2
T2 sequence (Q8IYT8 whole entry): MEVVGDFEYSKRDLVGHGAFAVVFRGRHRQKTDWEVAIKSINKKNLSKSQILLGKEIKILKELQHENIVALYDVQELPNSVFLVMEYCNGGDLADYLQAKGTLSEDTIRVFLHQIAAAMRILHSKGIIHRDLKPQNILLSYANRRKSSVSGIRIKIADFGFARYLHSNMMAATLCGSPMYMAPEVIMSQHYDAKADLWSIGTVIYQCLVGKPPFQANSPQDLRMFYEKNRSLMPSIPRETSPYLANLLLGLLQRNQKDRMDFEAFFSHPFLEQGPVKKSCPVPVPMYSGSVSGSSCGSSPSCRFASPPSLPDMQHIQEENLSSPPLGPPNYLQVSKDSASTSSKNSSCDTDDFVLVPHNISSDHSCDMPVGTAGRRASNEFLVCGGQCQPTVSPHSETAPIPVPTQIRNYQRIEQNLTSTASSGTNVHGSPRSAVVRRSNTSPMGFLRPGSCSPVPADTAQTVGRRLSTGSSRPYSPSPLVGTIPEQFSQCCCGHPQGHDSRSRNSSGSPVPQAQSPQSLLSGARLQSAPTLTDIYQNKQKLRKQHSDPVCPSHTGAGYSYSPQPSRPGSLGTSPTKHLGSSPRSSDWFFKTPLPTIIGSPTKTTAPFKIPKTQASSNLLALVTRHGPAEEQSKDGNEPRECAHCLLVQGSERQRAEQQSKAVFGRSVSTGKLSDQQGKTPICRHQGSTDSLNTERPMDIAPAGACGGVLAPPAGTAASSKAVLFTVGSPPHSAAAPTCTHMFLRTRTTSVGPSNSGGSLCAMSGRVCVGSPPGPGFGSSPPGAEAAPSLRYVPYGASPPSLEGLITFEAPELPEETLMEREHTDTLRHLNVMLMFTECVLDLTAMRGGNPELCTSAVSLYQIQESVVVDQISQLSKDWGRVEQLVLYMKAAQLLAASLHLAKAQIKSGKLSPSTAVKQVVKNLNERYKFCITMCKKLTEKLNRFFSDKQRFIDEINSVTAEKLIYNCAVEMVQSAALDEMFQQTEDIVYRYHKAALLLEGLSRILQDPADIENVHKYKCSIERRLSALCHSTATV

[3] = biological target: Non-receptor tyrosine-protein kinase TYK2 (Homo sapiens) (UniProt P29597); assay: Inhibition of human recombinant TYK2 at 500 nM related to control ULK1
Non-receptor tyrosine-protein kinase TYK2 (Homo sapiens), sequence (P29597 whole entry): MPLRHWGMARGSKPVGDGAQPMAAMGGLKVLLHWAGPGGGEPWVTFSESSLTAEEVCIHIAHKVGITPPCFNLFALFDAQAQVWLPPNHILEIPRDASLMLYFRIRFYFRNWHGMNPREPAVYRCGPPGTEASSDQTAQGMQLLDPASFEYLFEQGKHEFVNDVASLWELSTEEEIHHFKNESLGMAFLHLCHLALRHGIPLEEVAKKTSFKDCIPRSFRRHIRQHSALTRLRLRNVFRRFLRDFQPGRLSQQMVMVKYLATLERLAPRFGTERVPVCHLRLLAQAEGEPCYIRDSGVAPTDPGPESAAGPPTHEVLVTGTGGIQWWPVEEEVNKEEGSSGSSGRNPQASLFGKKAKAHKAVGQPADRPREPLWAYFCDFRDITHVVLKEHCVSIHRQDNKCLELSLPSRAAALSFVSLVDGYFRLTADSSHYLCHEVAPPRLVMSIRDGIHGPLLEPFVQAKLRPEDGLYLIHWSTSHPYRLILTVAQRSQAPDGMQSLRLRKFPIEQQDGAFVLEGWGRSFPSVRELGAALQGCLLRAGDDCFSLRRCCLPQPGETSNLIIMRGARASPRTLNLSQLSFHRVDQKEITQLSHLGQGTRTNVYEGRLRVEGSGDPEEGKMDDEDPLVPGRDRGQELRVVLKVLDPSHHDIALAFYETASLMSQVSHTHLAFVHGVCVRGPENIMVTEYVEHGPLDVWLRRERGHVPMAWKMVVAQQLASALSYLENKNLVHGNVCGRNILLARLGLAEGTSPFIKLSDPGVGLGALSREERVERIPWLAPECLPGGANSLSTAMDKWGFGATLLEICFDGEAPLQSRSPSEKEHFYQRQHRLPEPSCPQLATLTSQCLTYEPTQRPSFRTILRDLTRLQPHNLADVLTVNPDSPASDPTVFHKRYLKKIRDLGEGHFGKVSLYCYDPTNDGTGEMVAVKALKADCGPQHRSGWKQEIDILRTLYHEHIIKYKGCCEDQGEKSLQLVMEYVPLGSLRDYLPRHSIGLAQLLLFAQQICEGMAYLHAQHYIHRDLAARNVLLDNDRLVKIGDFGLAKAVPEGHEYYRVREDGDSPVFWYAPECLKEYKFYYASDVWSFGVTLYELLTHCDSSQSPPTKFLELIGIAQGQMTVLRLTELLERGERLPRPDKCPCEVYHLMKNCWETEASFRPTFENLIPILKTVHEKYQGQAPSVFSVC

[4] = biological target: T3, Serine/threonine-protein kinase DCLK2 (Homo sapiens) (UniProt Q8N568); assay: Inhibition of human recombinant DCAMKL2 at 500 nM in presence of ATP by radiometric assay relative to control
T3 sequence (whole entry): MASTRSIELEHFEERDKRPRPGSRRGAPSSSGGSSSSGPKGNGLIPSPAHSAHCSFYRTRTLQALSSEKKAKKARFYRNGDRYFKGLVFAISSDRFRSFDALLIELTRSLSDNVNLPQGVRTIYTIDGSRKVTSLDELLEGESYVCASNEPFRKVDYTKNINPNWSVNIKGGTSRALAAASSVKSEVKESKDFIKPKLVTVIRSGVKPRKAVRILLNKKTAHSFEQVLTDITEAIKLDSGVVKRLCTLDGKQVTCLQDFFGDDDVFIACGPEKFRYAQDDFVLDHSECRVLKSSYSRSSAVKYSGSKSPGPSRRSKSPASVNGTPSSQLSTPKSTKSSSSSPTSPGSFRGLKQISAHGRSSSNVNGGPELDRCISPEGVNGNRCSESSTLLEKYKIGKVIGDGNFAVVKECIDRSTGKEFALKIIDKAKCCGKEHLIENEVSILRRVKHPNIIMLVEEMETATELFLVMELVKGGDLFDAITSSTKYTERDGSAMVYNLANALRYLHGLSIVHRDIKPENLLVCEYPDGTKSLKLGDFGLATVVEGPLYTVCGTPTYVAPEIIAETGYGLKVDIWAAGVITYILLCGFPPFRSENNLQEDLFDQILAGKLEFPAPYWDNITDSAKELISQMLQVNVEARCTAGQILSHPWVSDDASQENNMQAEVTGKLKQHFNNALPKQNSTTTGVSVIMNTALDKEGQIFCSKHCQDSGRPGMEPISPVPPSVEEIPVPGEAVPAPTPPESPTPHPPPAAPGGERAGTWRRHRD

O=C(N[C@@H](C1CC1)C(F)(F)F)c1cc(-c2cnn3cc(-c4ccc(F)cc4)cnc23)cs1
inhibition [1]: Dose-Dependent Effect | IC50 [2]: 30 nM

CC(C)[C@H](NC(=O)c1cc(-c2cnn3cc(-c4ccc(OCCN5CCCCC5)cc4)cnc23)cs1)C(F)(F)F
inhibition [1]: Dose-Dependent Effect | IC50 [2]: 2.6 nM

CNC(=O)c1ccccc1Oc1nc(Nc2cc(OC)c(OC)c(OC)c2)ncc1Br
fold change (FC) [3]: 1.05 | inhibition [4]: 0% | inhibition [1]: Dose-Dependent Effect | IC50 [2]: 212 nM
